{"source": "paper PMC11564776", "about": "“Enzyme stabilisation due to incorporation of a fluorinated non-natural amino acid at the protein surface” (Scientific Reports, 2024)", "target": "T1, WT transketolase (WT TK) (Escherichia coli, UniProt P27302)", "T1 construct": "gene tktA; full length, N-terminal His6 tag (plasmid pQR791), Ni-NTA purified, tag cleavage not mentioned; homodimer of 73-74 kDa monomers; WT expressed in E. coli XL10-Gold, variants in E. coli C321.dA.exp", "test": "HPLC of erythrulose formation, initial velocities, Michaelis-Menten fit", "assay_type": "biochemical", "details": "50 mM HPA, 1.36 mM ThDP, 5.1 mM MgCl2, 33 mM Tris.HCl, pH 7.0, assay 21 °C, pre-incubated 15 min at 21 °C, standard error in parentheses, read-out: Km (GA)", "from_the_text": "HPLC of erythrulose formation, initial velocities, Michaelis-Menten fit on WT transketolase (WT TK)", "note": "Like-named read-outs stand apart in the source and are kept apart here.", "data": [{"compound": "O=CCO", "note": "[GA]", "values": [{"measurement": "Km", "setting": "non-natural amino acid at 316, 84% incorporation with 9% K316F", "value": 14, "unit": "mM"}, {"measurement": "Km", "setting": "non-natural amino acid at 316, almost 100% incorporation", "value": 18, "unit": "mM"}]}]}
